Columns and labels:
Test in all cases: relative viability (nuclei count vs DMSO), 5 days (fraction); higher = more cells survive
NCI-H1651 = system: NCI-H1651
In short: (§1)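 One day after seeding in 1536-well plates, lung cancer cell lines were dosed by pin tool. Dosing was either single-drug or a fixed anchor-drug dose plus five library-drug doses (not always all listed) in √10 steps. After 5 days, nuclei were stained in one fix-and-stain step and counted on 4× images, and relative viability is the nuclei count of treated wells over that of vehicle wells, given as the median of duplicate plates.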

NCI-H1623 = system: NCI-H1623
In short: as §1

SK-MES-1 = system: SK-MES-1
In short: as §1

SW 1573 = system: SW 1573
In short: as §1

ChaGo-K-1 = system: ChaGo-K-1
In short: as §1

COR-L23 = system: COR-L23
In short: as §1

NCI-H1437 = system: NCI-H1437
In short: as §1

ABC-1 = system: ABC-1
In short: as §1

COc1cc2nccc(Oc3ccc(NC(=O)Nc4cc(C)on4)c(Cl)c3)c2cc1OC [Tivozanib] + CCNC(=O)c1noc(-c2cc(C(C)C)c(O)cc2O)c1-c1ccc(CN2CCOCC2)cc1 [Luminespib] (partner 0.01 µM)
relative viability (NCI-H1651; first compound 0.005 µM): 0.86
relative viability (NCI-H1651; first compound 0.01581 µM): 0.638
relative viability (NCI-H1651; first compound 0.05 µM): 0.842
relative viability (NCI-H1651; first compound 0.1581 µM): 0.883
relative viability (NCI-H1651; first compound 0.5 µM): 0.931
relative viability (NCI-H1623; first compound 0.005 µM): 0.466
relative viability (NCI-H1623; first compound 0.01581 µM): 0.55
relative viability (NCI-H1623; first compound 0.05 µM): 0.602
relative viability (NCI-H1623; first compound 0.5 µM): 0.504
relative viability (SK-MES-1; first compound 0.005 µM): 0.737
relative viability (SK-MES-1; first compound 0.01581 µM): 0.832
relative viability (SK-MES-1; first compound 0.05 µM): 0.773
relative viability (SK-MES-1; first compound 0.1581 µM): 0.837
relative viability (SK-MES-1; first compound 0.5 µM): 0.807
relative viability (SW 1573; first compound 0.005 µM): 0.644
relative viability (SW 1573; first compound 0.01581 µM): 0.224
relative viability (SW 1573; first compound 0.05 µM): 0.248
relative viability (SW 1573; first compound 0.1581 µM): 0.226
relative viability (SW 1573; first compound 0.5 µM): 0.343
relative viability (ChaGo-K-1; first compound 0.005 µM): 0.622
relative viability (ChaGo-K-1; first compound 0.01581 µM): 0.565
relative viability (ChaGo-K-1; first compound 0.05 µM): 0.593
relative viability (ChaGo-K-1; first compound 0.1581 µM): 0.497
relative viability (ChaGo-K-1; first compound 0.5 µM): 0.502
relative viability (COR-L23; first compound 0.005 µM): 0.62
relative viability (COR-L23; first compound 0.01581 µM): 0.607
relative viability (COR-L23; first compound 0.05 µM): 0.748
relative viability (COR-L23; first compound 0.1581 µM): 0.597
relative viability (COR-L23; first compound 0.5 µM): 0.532
relative viability (NCI-H1437; first compound 0.005 µM): 1.14
relative viability (NCI-H1437; first compound 0.01581 µM): 1.11
relative viability (NCI-H1437; first compound 0.05 µM): 1.13
relative viability (NCI-H1437; first compound 0.1581 µM): 1.13
relative viability (NCI-H1437; first compound 0.5 µM): 1.11
relative viability (ABC-1; first compound 0.005 µM): 0.692
relative viability (ABC-1; first compound 0.05 µM): 0.429
relative viability (ABC-1; first compound 0.1581 µM): 0.389
relative viability (ABC-1; first compound 0.5 µM): 0.215

Cc1sc2c(c1C)C(c1ccc(Cl)cc1)=N[C@@H](CC(=O)OC(C)(C)C)c1nnc(C)n1-2 [JQ1] + Cc1nc(Nc2ncc(C(=O)Nc3c(C)cccc3Cl)s2)cc(N2CCN(CCO)CC2)n1 [Dasatinib] (partner 0.075 µM)
relative viability (NCI-H1651; first compound 0.04 µM): 0.384
relative viability (NCI-H1651; first compound 0.1265 µM): 0.292
relative viability (NCI-H1651; first compound 0.4 µM): 0.306
relative viability (NCI-H1651; first compound 1.265 µM): 0.246
relative viability (NCI-H1651; first compound 4 µM): 0.221
relative viability (NCI-H1623; first compound 0.04 µM): 0.634
relative viability (NCI-H1623; first compound 0.1265 µM): 0.483
relative viability (NCI-H1623; first compound 0.4 µM): 0.466
relative viability (NCI-H1623; first compound 1.265 µM): 0.357
relative viability (NCI-H1623; first compound 4 µM): 0.32
relative viability (SK-MES-1; first compound 0.04 µM): 0.338
relative viability (SK-MES-1; first compound 0.1265 µM): 0.273
relative viability (SK-MES-1; first compound 0.4 µM): 0.311
relative viability (SK-MES-1; first compound 1.265 µM): 0.168
relative viability (SK-MES-1; first compound 4 µM): 0.171
relative viability (SW 1573; first compound 0.04 µM): 0.486
relative viability (SW 1573; first compound 0.1265 µM): 0.447
relative viability (SW 1573; first compound 0.4 µM): 0.31
relative viability (SW 1573; first compound 1.265 µM): 0.218
relative viability (SW 1573; first compound 4 µM): 0.23
relative viability (ChaGo-K-1; first compound 0.04 µM): 0.663
relative viability (ChaGo-K-1; first compound 0.1265 µM): 0.462
relative viability (ChaGo-K-1; first compound 0.4 µM): 0.44
relative viability (ChaGo-K-1; first compound 1.265 µM): 0.485
relative viability (ChaGo-K-1; first compound 4 µM): 0.397
relative viability (COR-L23; first compound 0.04 µM): 0.507
relative viability (COR-L23; first compound 0.1265 µM): 0.351
relative viability (COR-L23; first compound 0.4 µM): 0.516
relative viability (COR-L23; first compound 1.265 µM): 0.279
relative viability (COR-L23; first compound 4 µM): 0.256
relative viability (NCI-H1437; first compound 0.04 µM): 0.394
relative viability (NCI-H1437; first compound 0.1265 µM): 0.365
relative viability (NCI-H1437; first compound 0.4 µM): 0.263
relative viability (NCI-H1437; first compound 1.265 µM): 0.217
relative viability (NCI-H1437; first compound 4 µM): 0.244
relative viability (ABC-1; first compound 0.04 µM): 0.583
relative viability (ABC-1; first compound 0.1265 µM): 0.413
relative viability (ABC-1; first compound 0.4 µM): 0.417
relative viability (ABC-1; first compound 1.265 µM): 0.429
relative viability (ABC-1; first compound 4 µM): 0.333

Cc1sc2c(c1C)C(c1ccc(Cl)cc1)=N[C@@H](CC(=O)OC(C)(C)C)c1nnc(C)n1-2 [JQ1] + CCNC(=O)c1noc(-c2cc(C(C)C)c(O)cc2O)c1-c1ccc(CN2CCOCC2)cc1 [Luminespib] (partner 0.01 µM)
relative viability (NCI-H1651; first compound 0.04 µM): 0.865
relative viability (NCI-H1651; first compound 0.1265 µM): 0.997
relative viability (NCI-H1651; first compound 0.4 µM): 0.768
relative viability (NCI-H1651; first compound 1.265 µM): 0.369
relative viability (NCI-H1651; first compound 4 µM): 0.375
relative viability (NCI-H1623; first compound 0.04 µM): 0.543
relative viability (NCI-H1623; first compound 0.1265 µM): 0.593
relative viability (NCI-H1623; first compound 0.4 µM): 0.459
relative viability (NCI-H1623; first compound 1.265 µM): 0.466
relative viability (NCI-H1623; first compound 4 µM): 0.418
relative viability (SK-MES-1; first compound 0.04 µM): 0.756
relative viability (SK-MES-1; first compound 0.1265 µM): 0.581
relative viability (SK-MES-1; first compound 0.4 µM): 0.317
relative viability (SK-MES-1; first compound 1.265 µM): 0.163
relative viability (SK-MES-1; first compound 4 µM): 0.173
relative viability (SW 1573; first compound 0.04 µM): 0.249
relative viability (SW 1573; first compound 0.1265 µM): 0.182
relative viability (SW 1573; first compound 0.4 µM): 0.195
relative viability (SW 1573; first compound 1.265 µM): 0.0871
relative viability (SW 1573; first compound 4 µM): 0.0908
relative viability (ChaGo-K-1; first compound 0.04 µM): 0.77
relative viability (ChaGo-K-1; first compound 0.1265 µM): 0.503
relative viability (ChaGo-K-1; first compound 0.4 µM): 0.452
relative viability (ChaGo-K-1; first compound 1.265 µM): 0.322
relative viability (ChaGo-K-1; first compound 4 µM): 0.285
relative viability (COR-L23; first compound 0.04 µM): 0.649
relative viability (COR-L23; first compound 0.1265 µM): 0.6
relative viability (COR-L23; first compound 0.4 µM): 0.504
relative viability (COR-L23; first compound 1.265 µM): 0.207
relative viability (COR-L23; first compound 4 µM): 0.114
relative viability (NCI-H1437; first compound 0.04 µM): 1.1
relative viability (NCI-H1437; first compound 0.1265 µM): 1.09
relative viability (NCI-H1437; first compound 0.4 µM): 1.11
relative viability (NCI-H1437; first compound 1.265 µM): 0.617
relative viability (NCI-H1437; first compound 4 µM): 0.393
relative viability (ABC-1; first compound 0.04 µM): 0.612
relative viability (ABC-1; first compound 0.1265 µM): 0.286
relative viability (ABC-1; first compound 0.4 µM): 0.479
relative viability (ABC-1; first compound 1.265 µM): 0.192
relative viability (ABC-1; first compound 4 µM): 0.267
